# Assay: in vitro
# Conditions: mouse, liver microsomes
row,remaining at 10 min [%],SMILES
1,71,O=C1N[C@H](c2cncc(C#Cc3ccccc3)c2)[C@@H](c2cccc(F)c2)O1
2,81,C[C@]1(O)C[C@@H](C#Cc2cncc([C@H]3NC(=O)O[C@@H]3c3cccc(F)c3)c2)C1
3,37,O=C1N[C@H](c2cncc(C#C[C@H]3C[C@H](F)C3)c2)[C@@H](c2cccc(F)c2)O1
4,57,O=C1N[C@H](c2cncc(C#C[C@H]3C[C@@H](F)C3)c2)[C@@H](c2cccc(F)c2)O1
5,74,O=C1N[C@H](c2cncc(C#C[C@H]3C[C@H](O)C3)c2)[C@@H](c2cccc(F)c2)O1
6,51,O=C1N[C@H](c2cncc(C#C[C@H]3C[C@@H](O)C3)c2)[C@@H](c2cccc(F)c2)O1
7,78,C[C@]1(O)C[C@H](C#Cc2cncc([C@H]3NC(=O)O[C@@H]3c3cccc(F)c3)c2)C1

row,SMILES,remaining at 10 min [%]
1,O=C1N[C@H](c2cncc(C#CC3CC(F)(F)C3)c2)[C@@H](c2ccc(F)cc2F)O1,84
2,O=C1N[C@H](c2cncc(C#CC3CCOC3)c2)[C@@H](c2cccc(F)c2)O1 (stereo not given in full),63
3,O=C1N[C@H](c2cncc(C#CC3CC3)c2)[C@@H](c2cccc(F)c2)O1,69

# Assay: in vitro
# Conditions: human, liver microsomes
row,remaining at 10 min [%],SMILES
1,76,O=C1N[C@H](c2cncc(C#Cc3ccccc3)c2)[C@@H](c2cccc(F)c2)O1
2,95,C[C@]1(O)C[C@@H](C#Cc2cncc([C@H]3NC(=O)O[C@@H]3c3cccc(F)c3)c2)C1
3,81,O=C1N[C@H](c2cncc(C#C[C@H]3C[C@H](F)C3)c2)[C@@H](c2cccc(F)c2)O1
4,83,O=C1N[C@H](c2cncc(C#C[C@H]3C[C@@H](F)C3)c2)[C@@H](c2cccc(F)c2)O1
5,100,O=C1N[C@H](c2cncc(C#C[C@H]3C[C@H](O)C3)c2)[C@@H](c2cccc(F)c2)O1
6,100,O=C1N[C@H](c2cncc(C#C[C@H]3C[C@@H](O)C3)c2)[C@@H](c2cccc(F)c2)O1
7,88,C[C@]1(O)C[C@H](C#Cc2cncc([C@H]3NC(=O)O[C@@H]3c3cccc(F)c3)c2)C1

row,SMILES,remaining at 10 min [%]
1,O=C1N[C@H](c2cncc(C#CC3CC(F)(F)C3)c2)[C@@H](c2ccc(F)cc2F)O1,100
2,O=C1N[C@H](c2cncc(C#CC3CCOC3)c2)[C@@H](c2cccc(F)c2)O1 (stereo not given in full),93
3,O=C1N[C@H](c2cncc(C#CC3CC3)c2)[C@@H](c2cccc(F)c2)O1,81
